Reference: ChEMBL document CHEMBL1201862, “PubChem BioAssay data set” (2004)
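The compound was tested at five concentrations on cells cultured in 96-well plates, with a 48-hour exposure period. GI50: concentration for 50% inhibition of growth.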 Activity calls are given as the source filed them. Cut-off read from the data, not from the text of the source: active = GI50 up to about 1.1 µM and inactive = higher.

Columns and labels:
Test in all cases: NCI tumour cell line growth inhibition, 48 h
SR = test system: SR
MOLT-4 = test system: MOLT-4
BT-549 = test system: BT-549
HOP-92 = test system: HOP-92
MDA-MB-231 = test system: MDA-MB-231
CCRF-CEM = test system: CCRF-CEM
NCI/ADR-RES = test system: NCI/ADR-RES
Malme-3M = test system: Malme-3M
LOX IMVI = test system: LOX IMVI
RPMI-8226 = test system: RPMI-8226
SW-620 = test system: SW-620
SK-MEL-28 = test system: SK-MEL-28
TK-10 = test system: TK-10
NCI-H23 = test system: NCI-H23
CAKI-1 = test system: CAKI-1
K562 = test system: K562
OVCAR-4 = test system: OVCAR-4
SNB-75 = test system: SNB-75
SF-268 = test system: SF-268
HCT-116 = test system: HCT-116
MDA-N = test system: MDA-N
OVCAR-3 = test system: OVCAR-3
SN12C = test system: SN12C
SF-295 = test system: SF-295
HL-60 = test system: HL-60
SK-MEL-2 = test system: SK-MEL-2
NCI-H226 = test system: NCI-H226
OVCAR-5 = test system: OVCAR-5
MCF7 = test system: MCF7
HOP-62 = test system: HOP-62
UO-31 = test system: UO-31
PC-3 = test system: PC-3
EKVX = test system: EKVX
COLO 205 = test system: COLO 205
786-0 = test system: 786-0
HCC 2998 = test system: HCC 2998
HCT-15 = test system: HCT-15
SNB-19 = test system: SNB-19
MDA-MB-435 = test system: MDA-MB-435
NCI-H522 = test system: NCI-H522
UACC-257 = test system: UACC-257
A498 = test system: A498
U-251 = test system: U-251
HT-29 = test system: HT-29
OVCAR-8 = test system: OVCAR-8
A549 = test system: A549
SK-OV-3 = test system: SK-OV-3
NCI-H460 = test system: NCI-H460
IGROV-1 = test system: IGROV-1
Hs-578T = test system: Hs-578T
M14 = test system: M14
ACHN = test system: ACHN
SK-MEL-5 = test system: SK-MEL-5
KM12 = test system: KM12
SF-539 = test system: SF-539
UACC-62 = test system: UACC-62
T47D = test system: T47D
RXF 393 = test system: RXF 393
DU-145 = test system: DU-145

Measured: GI50

O=C(Nc1ccccc1)c1cc(S(=O)(=O)Nc2n[nH]c(=O)[nH]2)c(SSc2cc(Cl)c(C(=O)Nc3ccccc3)cc2S(=O)(=O)Nc2n[nH]c(=O)[nH]2)cc1Cl
inactive: SR > 100 µM | MOLT-4 > 100 µM | BT-549 > 100 µM | HOP-92 > 100 µM | MDA-MB-231 > 100 µM | CCRF-CEM > 100 µM | NCI/ADR-RES > 100 µM | Malme-3M > 100 µM | LOX IMVI > 100 µM | RPMI-8226 > 100 µM | SW-620 > 100 µM | SK-MEL-28 > 100 µM | TK-10 > 100 µM | NCI-H23 > 100 µM | CAKI-1 > 100 µM | K562 55.5 µM | OVCAR-4 > 100 µM | SNB-75 > 100 µM | SF-268 > 100 µM | HCT-116 > 100 µM | MDA-N > 100 µM | OVCAR-3 > 100 µM | SN12C > 100 µM | SF-295 > 100 µM | HL-60 > 100 µM | SK-MEL-2 > 100 µM | NCI-H226 > 100 µM | OVCAR-5 > 100 µM | MCF7 > 100 µM | HOP-62 > 100 µM | UO-31 > 100 µM | PC-3 > 100 µM | EKVX > 100 µM | COLO 205 > 100 µM | 786-0 > 100 µM | HCC 2998 > 100 µM | SNB-19 > 100 µM | MDA-MB-435 > 100 µM | NCI-H522 > 100 µM | UACC-257 > 100 µM | A498 > 100 µM | U-251 > 100 µM | HT-29 > 100 µM | OVCAR-8 > 100 µM | A549 > 100 µM | SK-OV-3 > 100 µM | NCI-H460 > 100 µM | IGROV-1 > 100 µM | Hs-578T > 100 µM | M14 > 100 µM | ACHN > 100 µM | SK-MEL-5 > 100 µM | KM12 > 100 µM
> 100 µM: HCT-15

CC(C)(C)OC(=O)C1/C(=C/CO)CN1C(=O)OC(C)(C)C (configuration not stated)
> 100 µM: HCT-15
inactive: SF-539 > 100 µM | SR 90.8 µM | MOLT-4 57.3 µM | BT-549 > 100 µM | HOP-92 > 100 µM | CCRF-CEM 76.2 µM | NCI/ADR-RES > 100 µM | Malme-3M > 100 µM | LOX IMVI > 100 µM | RPMI-8226 > 100 µM | SW-620 > 100 µM | SK-MEL-28 > 100 µM | TK-10 > 100 µM | NCI-H23 > 100 µM | CAKI-1 > 100 µM | K562 > 100 µM | OVCAR-4 63.7 µM | SF-268 > 100 µM | HCT-116 > 100 µM | MDA-N > 100 µM | OVCAR-3 > 100 µM | SN12C > 100 µM | SF-295 > 100 µM | HL-60 > 100 µM | SK-MEL-2 > 100 µM | OVCAR-5 > 100 µM | MCF7 > 100 µM | HOP-62 > 100 µM | UO-31 > 100 µM | PC-3 > 100 µM | EKVX > 100 µM | COLO 205 > 100 µM | 786-0 > 100 µM | HCC 2998 > 100 µM | SNB-19 > 100 µM | MDA-MB-435 > 100 µM | UACC-257 > 100 µM | A498 > 100 µM | HT-29 > 100 µM | OVCAR-8 > 100 µM | A549 > 100 µM | SK-OV-3 > 100 µM | NCI-H460 > 100 µM | IGROV-1 > 100 µM | Hs-578T > 100 µM | M14 > 100 µM | ACHN > 100 µM | SK-MEL-5 > 100 µM | UACC-62 > 100 µM

[N-]=[N+]=NC1=C(C(=O)c2ccccc2)C(=O)c2cccc3cccc1c23
inactive: SF-539 49.3 µM | SR 10.6 µM | MOLT-4 23 µM | BT-549 44.8 µM | T47D 78.3 µM | HOP-92 28.4 µM | MDA-MB-231 23.4 µM | CCRF-CEM 21.4 µM | NCI/ADR-RES 67.3 µM | Malme-3M 46.7 µM | RPMI-8226 37.2 µM | SW-620 > 100 µM | SK-MEL-28 66.7 µM | TK-10 21.9 µM | NCI-H23 51.3 µM | CAKI-1 40.6 µM | K562 54.5 µM | OVCAR-4 39.5 µM | SNB-75 15.8 µM | SF-268 17.1 µM | HCT-116 72.1 µM | MDA-N 64.3 µM | OVCAR-3 30.5 µM | SN12C 63 µM | SF-295 42.3 µM | SK-MEL-2 21.8 µM | NCI-H226 36.4 µM | OVCAR-5 > 100 µM | MCF7 6.79 µM | HOP-62 17.1 µM | UO-31 26.2 µM | PC-3 49.2 µM | RXF 393 22.4 µM | EKVX 19.1 µM | COLO 205 > 100 µM | 786-0 25.3 µM | SNB-19 28.1 µM | MDA-MB-435 51.5 µM | NCI-H522 23 µM | UACC-257 48.8 µM | U-251 21.2 µM | HT-29 51.2 µM | OVCAR-8 37 µM | A549 45.2 µM | SK-OV-3 26.6 µM | IGROV-1 10.1 µM | Hs-578T 20.7 µM | M14 49.9 µM | ACHN 37.7 µM | SK-MEL-5 44.2 µM | UACC-62 31.3 µM | KM12 25.1 µM

O=C1/C(=C/c2ccc3c(c2)CCC3)Cc2cc3c(cc21)CCC3
inactive: SF-539 > 100 µM | SR > 100 µM | MOLT-4 > 100 µM | BT-549 > 100 µM | T47D 3.53 µM | MDA-MB-231 76.9 µM | CCRF-CEM > 100 µM | NCI/ADR-RES > 100 µM | Malme-3M > 100 µM | LOX IMVI > 100 µM | RPMI-8226 > 100 µM | SW-620 > 100 µM | SK-MEL-28 > 100 µM | TK-10 > 100 µM | DU-145 > 100 µM | NCI-H23 > 100 µM | K562 > 100 µM | OVCAR-4 > 100 µM | SNB-75 26.2 µM | SF-268 > 100 µM | HCT-116 > 100 µM | MDA-N > 100 µM | OVCAR-3 > 100 µM | SN12C > 100 µM | SF-295 > 100 µM | HL-60 > 100 µM | SK-MEL-2 > 100 µM | NCI-H226 > 100 µM | OVCAR-5 > 100 µM | MCF7 > 100 µM | HOP-62 > 100 µM | UO-31 > 100 µM | PC-3 > 100 µM | RXF 393 49.3 µM | EKVX > 100 µM | COLO 205 > 100 µM | HCC 2998 > 100 µM | SNB-19 61.9 µM | MDA-MB-435 > 100 µM | NCI-H522 > 100 µM | UACC-257 > 100 µM | A498 > 100 µM | U-251 > 100 µM | HT-29 > 100 µM | OVCAR-8 > 100 µM | A549 > 100 µM | SK-OV-3 > 100 µM | NCI-H460 > 100 µM | IGROV-1 > 100 µM | M14 > 100 µM | ACHN > 100 µM | SK-MEL-5 > 100 µM | UACC-62 > 100 µM | KM12 > 100 µM
> 100 µM: HCT-15
active: HOP-92 < 0.01 µM

CCCCOc1ccc(S(=O)(=O)/N=C(\NN)Nc2ccc(Cl)cc2)cc1
inactive: SF-539 17.7 µM | SR 21.2 µM | MOLT-4 23.3 µM | BT-549 > 100 µM | T47D 16.2 µM | HOP-92 25.2 µM | MDA-MB-231 20.2 µM | CCRF-CEM 20 µM | NCI/ADR-RES 24.5 µM | Malme-3M 26.9 µM | LOX IMVI 19.8 µM | RPMI-8226 30.1 µM | SW-620 29.4 µM | SK-MEL-28 43.7 µM | TK-10 43.5 µM | DU-145 17.2 µM | NCI-H23 36.1 µM | CAKI-1 21.5 µM | K562 31.7 µM | OVCAR-4 19.1 µM | SNB-75 12.2 µM | SF-268 17.4 µM | HCT-116 20 µM | MDA-N 32.3 µM | OVCAR-3 20.8 µM | SN12C 19.2 µM | SF-295 23.4 µM | HL-60 31 µM | SK-MEL-2 > 100 µM | NCI-H226 29.6 µM | OVCAR-5 21 µM | MCF7 32.1 µM | HOP-62 20.4 µM | UO-31 18.2 µM | PC-3 17.7 µM | RXF 393 16.7 µM | EKVX 45.4 µM | COLO 205 18 µM | 786-0 17.1 µM | SNB-19 53.5 µM | UACC-257 23.1 µM | A498 47.1 µM | U-251 16.4 µM | HT-29 22.3 µM | OVCAR-8 19 µM | A549 17.8 µM | SK-OV-3 27 µM | NCI-H460 16.4 µM | IGROV-1 26.1 µM | M14 24.2 µM | ACHN 69.7 µM | SK-MEL-5 35.9 µM | UACC-62 > 100 µM | KM12 32.7 µM
36 µM: HCT-15
